Experimental data as given in BigSolDB 2.1.

O=C(O)[C@@H]1C[C@@H](O)CN1
Conditions | solubility (mole fraction)
in 1,4-dioxane, 288.15 K | 0.00041
in 1,4-dioxane, 293.15 K | 0.00063
in 1,4-dioxane, 298.15 K | 0.00085
in 1,4-dioxane, 303.15 K | 0.00108
in 1,4-dioxane, 308.15 K | 0.00131
in 1,4-dioxane, 313.15 K | 0.00153
in 1,4-dioxane, 318.15 K | 0.00178
in 1,4-dioxane, 323.15 K | 0.00204
in 1,4-dioxane, 328.15 K | 0.00238
in 1,4-dioxane, 333.15 K | 0.00274
in 2-butanone, 283.15 K | 4.4e-05
in 2-butanone, 288.15 K | 7.9e-05
in 2-butanone, 293.15 K | 0.000128
in 2-butanone, 298.15 K | 0.00019
in 2-butanone, 303.15 K | 0.00028
in 2-butanone, 308.15 K | 0.000382
in 2-butanone, 313.15 K | 0.000483
in 2-butanone, 318.15 K | 0.000602
in 2-butanone, 323.15 K | 0.000723
in 2-butanone, 328.15 K | 0.000865
in 2-butanone, 333.15 K | 0.00101
in acetone, 283.15 K | 0.000922
in acetone, 288.15 K | 0.0011
in acetone, 293.15 K | 0.00139
in acetone, 298.15 K | 0.00164
in acetone, 303.15 K | 0.00205
in acetone, 308.15 K | 0.00235
in acetone, 313.15 K | 0.00277
in acetone, 318.15 K | 0.0032
in acetone, 323.15 K | 0.00383
in acetone, 328.15 K | 0.00441
in acetonitrile, 288.15 K | 3.3e-05
in acetonitrile, 293.15 K | 6.5e-05
in acetonitrile, 298.15 K | 0.000103
in acetonitrile, 303.15 K | 0.000146
in acetonitrile, 308.15 K | 0.000186
in acetonitrile, 313.15 K | 0.000226
in acetonitrile, 318.15 K | 0.000267
in acetonitrile, 323.15 K | 0.000315
in acetonitrile, 328.15 K | 0.000358
in acetonitrile, 333.15 K | 0.000416
in dichloromethane, 283.15 K | 0.000134
in dichloromethane, 288.15 K | 0.000221
in dichloromethane, 293.15 K | 0.000313
in dichloromethane, 298.15 K | 0.000412
in dichloromethane, 303.15 K | 0.000511
in dichloromethane, 308.15 K | 0.000614
in ethanol, 283.15 K | 7e-05
in ethanol, 288.15 K | 0.000109
in ethanol, 293.15 K | 0.000145
in ethanol, 298.15 K | 0.000188
in ethanol, 303.15 K | 0.000226
in ethanol, 308.15 K | 0.000273
in ethanol, 313.15 K | 0.000313
in ethanol, 318.15 K | 0.000378
in ethanol, 323.15 K | 0.000431
in ethanol, 328.15 K | 0.000512
in ethanol, 333.15 K | 0.000573
in ethyl acetate, 283.15 K | 0.000455
in ethyl acetate, 288.15 K | 0.000653
in ethyl acetate, 293.15 K | 0.000863
in ethyl acetate, 298.15 K | 0.00108
in ethyl acetate, 303.15 K | 0.00132
in ethyl acetate, 308.15 K | 0.00167
in ethyl acetate, 313.15 K | 0.0019
in ethyl acetate, 318.15 K | 0.00227
in ethyl acetate, 323.15 K | 0.00262
in ethyl acetate, 328.15 K | 0.00314
in ethyl acetate, 333.15 K | 0.00379
in isobutanol, 283.15 K | 6.9e-05
in isobutanol, 288.15 K | 8.2e-05
in isobutanol, 293.15 K | 9.7e-05
in isobutanol, 298.15 K | 0.000113
in isobutanol, 303.15 K | 0.000143
in isobutanol, 308.15 K | 0.000189
in isobutanol, 313.15 K | 0.000222
in isobutanol, 318.15 K | 0.000263
in isobutanol, 323.15 K | 0.000301
in isobutanol, 328.15 K | 0.000346
in isobutanol, 333.15 K | 0.000383
in isopropanol, 283.15 K | 3.5e-05
in isopropanol, 288.15 K | 6.8e-05
in isopropanol, 293.15 K | 9.9e-05
in isopropanol, 298.15 K | 0.000119
in isopropanol, 303.15 K | 0.000154
in isopropanol, 308.15 K | 0.000204
in isopropanol, 313.15 K | 0.000254
in isopropanol, 318.15 K | 0.00031
in isopropanol, 323.15 K | 0.00036
in isopropanol, 328.15 K | 0.000419
in isopropanol, 333.15 K | 0.000493
in methanol, 283.15 K | 0.000127
in methanol, 288.15 K | 0.000149
in methanol, 293.15 K | 0.000171
in methanol, 298.15 K | 0.000212
in methanol, 303.15 K | 0.000253
in methanol, 308.15 K | 0.000292
in methanol, 313.15 K | 0.000328
in methanol, 318.15 K | 0.000407
in methanol, 323.15 K | 0.000525
in methanol, 328.15 K | 0.000653
in methanol, 333.15 K | 0.000784
in methyl acetate, 283.15 K | 1.5e-05
in methyl acetate, 288.15 K | 4e-05
in methyl acetate, 293.15 K | 8e-05
in methyl acetate, 298.15 K | 0.000116
in methyl acetate, 303.15 K | 0.000153
in methyl acetate, 308.15 K | 0.000219
in methyl acetate, 313.15 K | 0.000278
in methyl acetate, 318.15 K | 0.000331
in methyl acetate, 323.15 K | 0.0004
in methyl acetate, 328.15 K | 0.000474
in n-butanol, 283.15 K | 8.8e-05
in n-butanol, 288.15 K | 0.0001
in n-butanol, 293.15 K | 0.000122
in n-butanol, 298.15 K | 0.000142
in n-butanol, 303.15 K | 0.000181
in n-butanol, 308.15 K | 0.000219
in n-butanol, 313.15 K | 0.000264
in n-butanol, 318.15 K | 0.000316
in n-butanol, 323.15 K | 0.000362
in n-butanol, 328.15 K | 0.00042
in n-butanol, 333.15 K | 0.0005
in n-pentanol, 283.15 K | 6.3e-05
in n-pentanol, 288.15 K | 8.4e-05
in n-pentanol, 293.15 K | 0.000114
in n-pentanol, 298.15 K | 0.000142
in n-pentanol, 303.15 K | 0.00017
in n-pentanol, 308.15 K | 0.000215
in n-pentanol, 313.15 K | 0.000321
in n-pentanol, 318.15 K | 0.000487
in n-pentanol, 323.15 K | 0.000628
in n-pentanol, 328.15 K | 0.000805
in n-pentanol, 333.15 K | 0.00104
in n-propanol, 283.15 K | 6.6e-05
in n-propanol, 288.15 K | 0.000109
in n-propanol, 293.15 K | 0.000126
in n-propanol, 298.15 K | 0.000154
in n-propanol, 303.15 K | 0.000203
in n-propanol, 308.15 K | 0.000253
in n-propanol, 313.15 K | 0.000304
in n-propanol, 318.15 K | 0.000355
in n-propanol, 323.15 K | 0.000409
in n-propanol, 328.15 K | 0.000456
in n-propanol, 333.15 K | 0.000502
in sec-butanol, 283.15 K | 3.8e-05
in sec-butanol, 288.15 K | 6.8e-05
in sec-butanol, 293.15 K | 9e-05
in sec-butanol, 298.15 K | 0.000129
in sec-butanol, 303.15 K | 0.000166
in sec-butanol, 308.15 K | 0.000205
in sec-butanol, 313.15 K | 0.000245
in sec-butanol, 318.15 K | 0.000293
in sec-butanol, 323.15 K | 0.000321
in sec-butanol, 328.15 K | 0.000365
in sec-butanol, 333.15 K | 0.000407
in water, 283.15 K | 0.0457
in water, 288.15 K | 0.0473
in water, 293.15 K | 0.0493
in water, 298.15 K | 0.0511
in water, 303.15 K | 0.053
in water, 308.15 K | 0.0554
in water, 313.15 K | 0.0571
in water, 318.15 K | 0.059
in water, 323.15 K | 0.0612
in water, 328.15 K | 0.0632
in water, 333.15 K | 0.0671
